How the values were obtained:
[1] = target: Microtubule-associated protein tau (Homo sapiens, UniProt P10636); test: Binding affinity to N-terminal His-tagged recombinant human Tau40 expressed in Escherichia coli Rosetta (DE3) assessed as dissociation constant incubated for 0.5 hrs by fluorescence polarization assay
[2] = target: Protein cereblon/Bcl-2-like protein 1 (Homo sapiens, UniProt Q07817+Q96SW2); test: PROTAC activity at CRBN/BCL-XL in human MOLT-4 cells assessed as induction of BCL-XL degradation incubated for 16 hrs by Western blot analysis; assay type: cell-based
Sequence of Protein cereblon/Bcl-2-like protein 1 (Q07817 whole entry): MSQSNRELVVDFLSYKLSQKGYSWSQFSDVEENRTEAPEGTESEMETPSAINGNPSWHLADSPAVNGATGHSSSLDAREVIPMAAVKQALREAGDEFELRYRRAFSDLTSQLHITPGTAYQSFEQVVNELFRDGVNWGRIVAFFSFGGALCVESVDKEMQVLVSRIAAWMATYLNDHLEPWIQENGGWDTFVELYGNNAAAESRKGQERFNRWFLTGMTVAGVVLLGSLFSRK
Sequence of Protein cereblon/Bcl-2-like protein 1 (Q96SW2 whole entry): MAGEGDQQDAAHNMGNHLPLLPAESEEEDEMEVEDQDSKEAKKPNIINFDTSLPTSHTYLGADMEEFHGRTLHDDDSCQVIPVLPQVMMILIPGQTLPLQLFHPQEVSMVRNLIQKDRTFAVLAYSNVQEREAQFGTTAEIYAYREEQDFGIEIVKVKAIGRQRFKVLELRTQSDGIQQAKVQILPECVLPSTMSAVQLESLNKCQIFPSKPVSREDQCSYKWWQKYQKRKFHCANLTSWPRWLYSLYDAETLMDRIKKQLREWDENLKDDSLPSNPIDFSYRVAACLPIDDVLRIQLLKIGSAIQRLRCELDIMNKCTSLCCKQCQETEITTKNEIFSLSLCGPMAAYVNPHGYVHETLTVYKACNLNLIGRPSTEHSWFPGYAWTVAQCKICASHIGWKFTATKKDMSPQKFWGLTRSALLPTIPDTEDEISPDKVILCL

Sequence of Microtubule-associated protein tau (P10636 whole entry): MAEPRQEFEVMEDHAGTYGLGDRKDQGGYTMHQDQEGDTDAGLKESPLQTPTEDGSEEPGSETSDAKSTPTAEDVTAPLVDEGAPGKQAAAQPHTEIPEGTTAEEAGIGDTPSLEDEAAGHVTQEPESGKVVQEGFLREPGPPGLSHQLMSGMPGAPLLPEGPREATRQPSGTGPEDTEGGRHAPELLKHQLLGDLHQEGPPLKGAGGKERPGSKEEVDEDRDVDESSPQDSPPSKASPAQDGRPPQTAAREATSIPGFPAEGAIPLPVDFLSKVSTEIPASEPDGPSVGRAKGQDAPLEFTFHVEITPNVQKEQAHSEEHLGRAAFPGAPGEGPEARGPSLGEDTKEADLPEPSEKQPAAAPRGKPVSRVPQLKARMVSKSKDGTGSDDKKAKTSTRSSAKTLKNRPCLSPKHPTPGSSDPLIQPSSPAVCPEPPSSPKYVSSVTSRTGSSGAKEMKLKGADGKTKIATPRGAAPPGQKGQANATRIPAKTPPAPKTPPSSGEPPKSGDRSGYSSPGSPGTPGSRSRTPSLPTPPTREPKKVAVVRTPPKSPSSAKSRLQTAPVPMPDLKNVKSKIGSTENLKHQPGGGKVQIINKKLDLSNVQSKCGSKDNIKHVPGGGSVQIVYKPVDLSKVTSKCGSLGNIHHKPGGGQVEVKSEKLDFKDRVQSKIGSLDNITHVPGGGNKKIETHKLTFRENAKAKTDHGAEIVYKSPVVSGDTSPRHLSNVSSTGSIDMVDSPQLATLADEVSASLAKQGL

Kd [1]	EC50 [2]	SMILES
0.394 µM		CC[C@H](C)[C@H](NC(=O)[C@H](Cc1ccc(O)cc1)NC(=O)[C@@H]1CCCN1C(=O)[C@H](C)NC(=O)[C@H](CC(C)C)NC(=O)[C@H](C)NC(=O)[C@H](CO)NC(=O)CNC(=O)[C@H](CO)NC(=O)CNC(=O)CNC(=O)[C@H](CCC(N)=O)NC(=O)[C@H](CCC(=O)O)NC(=O)[C@H](CC(=O)O)NC(=O)[C@H](C)NC(=O)[C@@H](NC(=O)[C@H](C)NC(=O)[C@H](CC(=O)O)NC(=O)[C@H](CCC(N)=O)NC(=O)[C@H](Cc1ccc(O)cc1)NC(=O)[C@H](CCC(N)=O)NC(=O)[C@H](CCC(N)=O)NC(=O)[C@@H](N)Cc1ccc(O)cc1)[C@@H](C)O)C(=O)N1CCC[C@H]1C(=O)N[C@H](CCCNC(=N)N)C(=O)N[C@H](CCCNC(=N)N)C(=O)N[C@H](CCCNC(=N)N)C(=O)N[C@H](CCCNC(=N)N)C(=O)N[C@H](CCCNC(=N)N)C(=O)N[C@H](CCCNC(=N)N)C(=O)N[C@H](CCCNC(=N)N)C(=O)N[C@H](CCCNC(=N)N)C(=O)O
	0.05 µM	O=C1CCC(N2C(=O)c3cccc(NCCOCCOCc4cn(CCCC(=O)N5CCN(CC#Cc6ccc(OCCCc7sc(N8CCc9cccc(C(=O)Nc%10nc%11ccccc%11s%10)c9C8)nc7C(=O)O)c(F)c6)CC5)nn4)c3C2=O)C(=O)N1 (configuration not stated)
